pIC50, pKi: −log10 of the molar value.

The first data set has as its target T1, Indoleamine 2,3-dioxygenase 1 (Homo sapiens, UniProt P14902). As to the kind of experiment: Inhibition of human IDO1 using L-tryptophan as substrate assessed as reduction in N-formyl kynurenine formation by measuring inhibition constant by UV-visible spectroscopic analysis.
Details: not given
Target sequence in this assay (P14902 whole entry): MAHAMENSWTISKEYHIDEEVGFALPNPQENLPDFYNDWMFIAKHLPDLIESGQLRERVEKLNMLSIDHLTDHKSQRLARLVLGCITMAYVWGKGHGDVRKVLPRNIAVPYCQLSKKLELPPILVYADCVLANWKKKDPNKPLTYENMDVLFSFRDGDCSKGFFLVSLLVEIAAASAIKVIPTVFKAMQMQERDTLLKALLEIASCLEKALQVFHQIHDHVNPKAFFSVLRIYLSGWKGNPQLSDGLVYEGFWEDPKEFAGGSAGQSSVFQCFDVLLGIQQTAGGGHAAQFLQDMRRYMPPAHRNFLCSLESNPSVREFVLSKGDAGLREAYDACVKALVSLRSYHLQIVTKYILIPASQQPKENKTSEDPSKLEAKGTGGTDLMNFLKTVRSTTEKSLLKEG
A word on the pKi: it is the Ki on a negative log10 scale, so that one unit is a factor of ten. For `CCNCCc1c[nH]c2c1C(=O)C(c1cccnc1)=CC2=O`, the pKi is 6.80.

Tested on in another data set: not listed separately
As to the kind of experiment: Cytotoxicity against HEK293 cells assessed as cell viability at 10 to 100 uM measured after 24 hrs by alamar blue assay relative to control. The data set is classed as toxicity, cell-based. As to conditions: human, dose 10-100 µM, read-out: Activity.
As for `COc1ccc(-c2nc3sccn3c2NC(C)(C)C)cc1O`, the viability at 24 h, up to 100 µM is 100%.

Another data set has as its system HEK293. Description: Cytotoxicity against HEK293 cells assessed as reduction in cell viability at 100 uM measured after 24 hrs by alamar blue assay relative to control. The data set is classed as toxicity, cell-based. As to conditions: human, hek293, 24 h. Background: The colour change of resazurin is a common sign of viable cells or microbes.
With `CC(C)(C)Nc1c(-c2ccc(-c3ccccc3)cc2)nc2sccn12`, the Activity is reported as ~ 85%.

The next data set deals with T1, Indoleamine 2,3-dioxygenase 1. As to the kind of experiment: Inhibition of human IDO1 using L-tryptophan as substrate assessed as reduction in N-formyl kynurenine formation by UV-visible spectroscopic analysis.
Details: not given
Target sequence in this assay (P14902 whole entry): as above
For orientation: pIC50 means −log10 of the IC50, conventionally taken in molar units. Turning to `Cc1n[nH]c2c1[C@@H](c1ccc(F)c(F)c1)c1c(N)n[nH]c1O2`, the pIC50 was 6.82.

With `COc1ccc(-c2nc3sccn3c2NCCN2CCOCC2)cc1O`, the pIC50 is 4.14.

As for `CC(C)(C)Nc1c(-c2ccc(C(F)(F)F)cc2)nc2sccn12`, the pIC50 is 2.89.

On to `CC(C)(C)CC(C)(C)Nc1c(-c2ccc(C(F)(F)F)cc2)nc2sccn12`, for which the pIC50 is 2.99.

As to `COc1ccc(-c2nc3sccn3c2NC(C)(C)CC(C)(C)C)cc1O`, the pIC50 was 4.60.

Regarding `O=S(=O)(Nc1cccc2cnccc12)c1ccc2c(c1)OCCO2`, the pIC50 was 7.25.

`COc1ccc(-c2nc3sccn3c2NC(C)(C)C)cc1O`: the pIC50 was 4.89.

With `COc1cccc(-c2nc3sccn3c2NC(C)(C)C)c1`, the pIC50 was 3.55.

Turning to `COc1ccc(-c2nc3cc(C)ccn3c2NC(C)(C)C)cc1O`, the pIC50 is 3.54.

For the compound `CC(C)(C)CC(C)(C)Nc1c(-c2ccccc2)nc2sccn12`, the pIC50 is 3.33.

`O[C@H](c1c(C2CC2)c(Cl)cc2cncn12)C1CC2CCC1CC2` (stereo partly specified): the pIC50 is 8.02.

As to `c1ccc(-c2ccc(-c3nc4sccn4c3NCCN3CCOCC3)cc2)cc1`, the pIC50 was 3.97.

`CC(C)(C)Nc1c(-c2ccc(-c3ccccc3)cc2)nc2sccn12`: the pIC50 was 4.64.

Take `O=C(Cc1ccccc1)Nc1ccc(CCOc2ccccc2-c2cnc[nH]2)cc1`: the pIC50 was 7.55.

Consider `CC(C)(C)CC(C)(C)Nc1c(-c2cccc(C#N)c2)nc2sccn12`, for which the negative logarithm of the IC50 (pIC50) was 3.32.

For `CC(C)(C)Nc1c(-c2ccc3c(c2)OCO3)nc2sccn12`, the pIC50 is 2.84.

For the compound `CC(C)(C)Nc1c(-c2ccncc2)nc2sccn12`, the pIC50 was 3.04.

For `CC(C)(C)CC(C)(C)Nc1c(-c2ccncc2)nc2sccn12`, the pIC50 was 3.16.

`CC(C)(C)CC(C)(C)Nc1c(-c2ccc(-c3ccccc3)cc2)nc2sccn12`: the pIC50 was 4.33.

`CC(C)(C)Nc1c(-c2ccccc2)nc2sccn12`: the pIC50 is 4.37.

Tested on in a further data set: not listed separately
Description: Cytotoxicity against HEK293 cells assessed as cell viability at 10 to 50 uM measured after 24 hrs by alamar blue assay relative to control. The data set is classed as toxicity, cell-based. As to conditions: human, dose 10-50 µM, read-out: Activity.
Consider `CC(C)(C)Nc1c(-c2ccc(-c3ccccc3)cc2)nc2sccn12`, for which the viability at 24 h, up to 50 µM came out at 100%.

For the next data set, the target named is T1, Indoleamine 2,3-dioxygenase 1. Description: Inhibition of human IDO1 using L-tryptophan as substrate assessed as reduction in N-formyl kynurenine formation at 200 uM by UV-visible spectroscopic analysis relative to control.
Details: not given
Target sequence in this assay (P14902 whole entry, looked up): as the sequence (P14902 whole entry) above
The term inhibition denotes the change of the read-out against control, counted positive when it falls. Turning to `C[C@H]1c2[nH]c3ccccc3c2C[C@]2(C)C(=O)N(C)C(=S)N12`, the inhibition worked out at 29%.

For the next data set the target is unchanged. The following applies: dose 1.0 mM.
Target sequence in this assay (P14902 whole entry, looked up): as the sequence (P14902 whole entry) above
On to `c1ccc2c(c1)[nH]c1cnccc12`, for which the inhibition came to 17%.

The values above are taken from ChEMBL document CHEMBL5390252, “Imidazo[2,1-b]thiazole based indoleamine-2,3-dioxygenase 1 (IDO1) inhibitor: Structure based design, synthesis, bio-evaluation and docking studies” (Bioorg Med Chem Lett, 2023).
